Laboratory results: patent publication US20240261422A1, “ANTHRACYCLINE ANTIBODY CONJUGATES” (SEAGEN INC., priority 2021, published 2024)

Columns and labels:
L540cy, HL = assay: In vitro growth inhibition (CellTiter-Glo, 96 h), L540cy; format: cell-based
Procedure: (§1) Cell culture of cell lines as listed in Table 2-4 in log-phase growth were seeded in 96-well plates and grown for 24 h in cell culture media containing 150 μL RPMI 1640 supplemented with 20% FBS (see Mol. Cancer Ther., 2016, 15(5), 938-945 and Mol. Cancer Ther., 2018, 17(8), 1752-1760). Serial dilutions of free drugs or antibody-drug conjugates (final concentration between 0.004 nM and 1 μM) in cell culture media were prepared at 4× working concentrations; 50 μL of each dilution was added to the 96-well plates. Following addition of the drug or ADC, the cells were incubated with test articles (free drugs or ADCs) for 4 d at 37° C. After 96 h, growth inhibition was assessed by CellTiter-Glo® (Promega, Madison, WI) and luminescence was measured on a plate reader (brand, model).
(§2) Cells were treated for 96 hours with anthracycline analogues listed in Table 2, and then assessed for viability as described in the procedures as described above. […] ND denotes value not determined with that assay for the specified compound.
(§3) ADCs were prepared by full reduction of interchain disulfides to reveal 8-conjugatable cysteines/antibody, and subsequent alkylation with the maleimide-containing drug-linkers (Compounds 14, 18, 21, 24, 29, 32, 33, 34, and 48) according to the procedures described in Mol. Cancer Ther. 2018, 17(8). 1752-1760. Conjugates of antibody cOKT9 were prepared with anthracycline linkers. Cancer cell lines were treated with cOKT9 ADCs (average DAR of 8:1) for 96 h and then assessed for viability. […] ND denotes value not determined with that assay for the specified compound.
(§4) Anti-CD30 ADCs comprising cAC10 antibody conjugated to drug-linkers 24, 32, 29, 18, 14, and 48 with an average DAR of 4 were prepared for evaluation on a CD30-expressing lymphoma cell line panel. […] Anti-CD30 conjugates bearing the PNU linkers 24, 32, 29, 18, and 14 were active on L540cy, DEL, and Karpas299 lymphoma cell lines, and conjugate 48 was active on L540cy and DEL cell lines, with IC50s ranging from 0.2-4 ng/mL.

786-O, MDR + RCC = assay: In vitro growth inhibition (CellTiter-Glo, 96 h), 786-O; format: cell-based; conditions: cOKT9 ADCs, average DAR 8, 96 h
Procedure: as §1, §2, §3

BxPC3, PancCa = assay: In vitro growth inhibition (CellTiter-Glo, 96 h), BxPC3; format: cell-based; conditions: cOKT9 ADCs, average DAR 8, 96 h
Procedure: as §1, §2, §3

[1] = test system: CD30-expressing lymphoma cell line panel; format: cell-based; conditions: cAC10 ADC DAR 4
Procedure: as §1, §4

HL60, AML = assay: In vitro growth inhibition (CellTiter-Glo, 96 h), HL60; format: cell-based; conditions: cOKT9 ADCs, average DAR 8, 96 h
Procedure: as §1, §2, §3

HL60/RV, MDR + AML = assay: In vitro growth inhibition (CellTiter-Glo, 96 h), HL60/RV; format: cell-based; conditions: cOKT9 ADCs, average DAR 8, 96 h
Procedure: as §1, §2, §3

[2] = test system: L540cy, 786-O, BxPC3, HL60, HL60/RV; conditions: for IC50s of cOKT9 conjugates: 24 h
[3] = test system: L540cy Hodgkin's lymphoma xenograft; assay: L540cy CD30+ Hodgkin lymphoma xenograft model; format: in vivo, SCID mice; conditions: cAC10 S239C ADCs, average DAR 2; single dose i.p. at about 100 mm^3
Procedure: (§5) All experiments were conducted in concordance with the Animal Care and Use Committee in a facility fully accredited by the Association for Assessment and Accreditation of Laboratory Animal Care. Efficacy experiments were conducted using the L540cy Hodgkin's lymphoma and DEL/BVR anaplastic large cell lymphoma xenograft models (Mol. Cancer Ther., 2018, 17(8), 1752-1760). Tumor cells, as a cell suspension, were implanted subcutaneously in immune-compromised SCID female mice. Upon tumor engraftment, the mice were randomized into study groups when the average tumor volume reached about 100 mm^3. The ADCs were dosed once via intraperitoneal injection. Tumor volume as a function of time was determined using the formula (L×W2)/2. Animals were euthanized when tumor volumes reached 1000 mm^3.
Anti-CD30 conjugates bearing PNU drug-linkers 29, 18, and 14 were evaluated in a CD30-expressing xenograft model as described above. cAC10 antibody with the S239C mutation is conjugated to the PNU drug linkers with an average DAR of 2 to minimize the effects of ADC pharmacokinetics. Tumor-bearing mice were administered a single dose intraperitoneally (i.p.) of test article once the average tumor volume reached 100 mm^3 (typically on day 8). Untreated mice were used as negative controls.

DEL, ALCL = assay: In vitro growth inhibition (CellTiter-Glo, 96 h), DEL; format: cell-based; conditions: cAC10 (anti-CD30) ADCs, average DAR 4
Procedure: as §1, §4

[4] = test system: DEL/BVR anaplastic large cell lymphoma xenograft; assay: DEL/BVR MDR+, CD30+ anaplastic large cell lymphoma xenograft model; format: in vivo, SCID mice; conditions: cAC10 S239C ADCs, average DAR 2; 3 mg/kg single dose i.p.
Procedure: as §5
Anti-CD30 conjugates bearing PNU drug-linkers 29, 18, and 14 were further evaluated in a DEL/BVR MDR+, CD30+ anaplastic large cell lymphoma xenograft model. cAC10 antibody with the S239C mutation is conjugated to the PNU drug linkers with an average DAR of 2 to minimize the effects of ADC pharmacokinetics. Tumor-bearing mice were administered a 3 mg/kg single dose intraperitoneally (i.p.) of test article once the average tumor volume reached 100 mm^3 (typically on day 4). […] However, the conjugate comprising PNU linker 29 appeared to be non-efficacious, and only provided minimal tumor growth delay (FIG. 2). Untreated mice were used as negative controls.

Ramos, CD30 − NHL = assay: In vitro growth inhibition (CellTiter-Glo, 96 h), Ramos; format: cell-based; conditions: cAC10 (anti-CD30) ADCs, average DAR 4
Procedure: as §1, §4

Karpas299, ALCL = assay: In vitro growth inhibition (CellTiter-Glo, 96 h), Karpas299; format: cell-based; conditions: cAC10 (anti-CD30) ADCs, average DAR 4
Procedure: as §1, §4

L428, MDR + HL = assay: In vitro growth inhibition (CellTiter-Glo, 96 h), L428; format: cell-based; conditions: cAC10 (anti-CD30) ADCs, average DAR 4
Procedure: as §1, §4

[5] = cOKT9 ADCs, average DAR 8, 96 h
[6] = cAC10 (anti-CD30) ADCs, average DAR 4

| SMILES | IC50 (ng/mL) L540cy, HL (L540cy, HL; [5]) | IC50 (ng/mL) 786-O, MDR + RCC (786-O, MDR + RCC) | IC50 (ng/mL) BxPC3, PancCa (BxPC3, PancCa) | IC50 values of anti-CD30 conjugate, highest dose tested [1] | IC50 (ng/mL) HL60, AML (HL60, AML) | IC50 (ng/mL) HL60/RV, MDR + AML (HL60/RV, MDR + AML) | activity of cOKT9 conjugates across the panel of cancer cell lines ([2]; cOKT9 ADCs DAR 8, result in words) | antitumor activity, L540cy xenograft (FIG. 1) [3] | IC50 (ng/mL) DEL, ALCL (DEL, ALCL) | IC50 (ng/mL) L540cy, HL (L540cy, HL; [6]) | antitumor activity, DEL/BVR xenograft (FIG. 2) [4] | IC50 (ng/mL) Ramos, CD30 − NHL (Ramos, CD30 − NHL) | IC50s of cOKT9 conjugates [2] | IC50 (ng/mL) Karpas299, ALCL (Karpas299, ALCL) | IC50 (ng/mL) L428, MDR + HL (L428, MDR + HL) |
| --- | --- | --- | --- | --- | --- | --- | --- | --- | --- | --- | --- | --- | --- | --- | --- |
| COc1cccc2c1C(=O)c1c(O)c3c(c(O)c1C2=O)C[C@@](O)(C(=O)NCCNC(=O)CNC(=O)CNC(=O)CNC(=O)CCN1C(=O)C=CC1=O)C[C@@H]3O[C@H]1C[C@H](N2CCO[C@H](OC)C2)[C@H](O)[C@H](C)O1 [Compound 33, (2S,4S)—N-(15-(2,5-dioxo-2,5-dihydro-1H-pyrrol-1-yl)-4,7,10,13-tetraoxo-3,6,9,12-tetraazapentadecyl)-2,5,12-trihydroxy-4-(((2R,4S,5S,6S)-5-hydroxy-4-((S)-2-methoxymorpholino)-6-methyltetrahydro-2H-pyran-2-yl)oxy)-7-methoxy-6,11-dioxo-1,2,3,4,6,11-hexahydrotetracene-2-carboxamide] | D (IC50≥1000 ng/mL) | D (IC50≥1000 ng/mL) | D (IC50≥1000 ng/mL) | > 20,000 ng/ml | D (IC50≥1000 ng/mL) | D (IC50≥1000 ng/mL) | inactive |  |  |  |  |  |  |  |  |
| COc1cccc2c1C(=O)c1c(O)c3c(c(O)c1C2=O)C[C@@](O)(C(=O)NCCNC(=O)CNC(=O)CNC(=O)CNC(=O)OCc1ccc(NC(=O)[C@H](C)NC(=O)[C@@H](NC(=O)CCN2C(=O)C=CC2=O)C(C)C)cc1)C[C@@H]3O[C@H]1C[C@H]2[C@H](O[C@@H]3[C@@H](OC)OCCN32)[C@H](C)O1 [Compound 29, 4-((S)-2-((S)-2-(3-(2,5-dioxo-2,5-dihydro-1H-pyrrol-1-yl)propanamido)-3-methylbutanamido)propanamido)benzyl (1,6,9,12-tetraoxo-1-((2S,4S)-2,5,12-trihydroxy-7-methoxy-4-(((1S,3R,4aS,9S,9aR,10aS)-9-methoxy-1-methyloctahydro-1H-pyrano[4′,3′:4,5]oxazolo[2,3-c][1,4]oxazin-3-yl)oxy)-6,11-dioxo-1,2,3,4,6,11-hexahydrotetracen-2-yl)-2,5,8,11-tetraazatridecan-13-yl)carbamate] | A (IC50<10 ng/mL) | B (10 ng/mL≤IC50<100 ng/mL) | A (IC50<10 ng/mL) |  | B (10 ng/mL≤IC50<100 ng/mL) | D (IC50≥1000 ng/mL) |  | active with a majority of animals in a complete regression | A (IC50<1 ng/mL) | B (1 ng/mL≤IC50<10 ng/mL) | non-efficacious | E (IC50≥500 ng/mL) | 1 to 150 ng/mL | A (IC50<1 ng/mL) | E (IC50≥500 ng/mL) |
| COc1cccc2c1C(=O)c1c(O)c3c(c(O)c1C2=O)C[C@@](O)(C(=O)NCCNC(=O)CNC(=O)CNC(=O)CNC(=O)CCN1C(=O)C=CC1=O)C[C@@H]3O[C@H]1C[C@H]2[C@H](O[C@@H]3[C@@H](OC)OCCN32)[C@H](C)O1 [Compound 18, (2S,4S)—N-(15-(2,5-dioxo-2,5-dihydro-1H-pyrrol-1-yl)-4,7,10,13-tetraoxo-3,6,9,12-tetraazapentadecyl)-2,5,12-trihydroxy-7-methoxy-4-(((1S,3R,4aS,9S,9aR,10aS)-9-methoxy-1-methyloctahydro-1H-pyrano[4′,3′:4,5]oxazolo[2,3-c][1,4]oxazin-3-yl)oxy)-6,11-dioxo-1,2,3,4,6,11-hexahydrotetracene-2-carboxamide] | A (IC50<10 ng/mL) | A (IC50<10 ng/mL) | A (IC50<10 ng/mL) |  | B (10 ng/mL≤IC50<100 ng/mL) | D (IC50≥1000 ng/mL) |  | active with a majority of animals in a complete regression | A (IC50<1 ng/mL) | B (1 ng/mL≤IC50<10 ng/mL) | efficacious in suppressing tumor growth | D (100 ng/mL≤IC50<500 ng/mL) | 1 to 150 ng/mL | A (IC50<1 ng/mL) | D (100 ng/mL≤IC50<500 ng/mL) |
